Entries after “also recorded” stand apart in the source; their conditions may differ.
Key:
SPR = molecular target: T1, SPR (Mus musculus, UniProt Q64105); assay: Cellular SPR activity: BH2 formation from sepiapterin in the presence of methotrexate, RAW264.7 cells; assay type: cell-based; details: RAW264.7 (mouse macrophage); with methotrexate
T1 construct: endogenous in cells; host or cells: RAW264.7
Procedure: The growth medium was then removed and the cells incubated with growth medium containing 100 μM sepiapterin. […] BH2 and BH4 were then analyzed on a Jasco high-performance liquid chromatography system (Easton, MD) fitted with a Maxsil-10 C18 column (250 × 4 mm; Phenomenex, Torrance, CA). […] Cell viability following drug treatments was greater than 95 %.

[1] = test system: catecholamine and monoamine production in PC12 cells; assay: Catecholamine and monoamine production in PC12 cells (HPLC, electrochemical detection); assay type: cell-based, rat; details: auranofin 0.04–2.5 μM
Procedure: Catecholamine and monoamine production in PC12 cells were assayed as previously described ([Yang et al., 2015]). Briefly, cells grown in 10-cm culture dishes were treated in the absence or presence of auranofin (0.04–2.5 μM) in 10 ml of growth medium without FBS. After 24 h, the cells were removed from the plates, washed with phosphate-buffered saline, and centrifuged (1500 g, 10 min). Cell pellets (~8 × 10^6 cells) were resuspended in 1 ml of 0.1 N perchloric acid containing 200 μM EDTA and 350 μM sodium metabisulfite and sonicated on ice. Ly-sates were centrifuged (20,000 g, 10 min) and clear supernatants filtered using 0.22-μm filters. Extracts were then analyzed for neurotransmitters and their metabolites using a Waters 2695 high-performance liquid chromatography system (Waters Corp., Milford, MA) fitted with a cation exchange column (MD-150 3.2 × […] column; ESA Biosciences, Inc., Chelmsford, MA) using an isocratic mobile phase (MD-TM mobile phase; ESA Biosciences Inc.) containing 2.2 mM NaCl pumped at constant flow rate of 0.5 ml/min. Compounds were quantified by electrochemical detection using a glassy carbon working electrode (2 mm in diameter) with an in situ silver reference electrode (flow cell, 2 mm GC WE, ISAAC; Waters Corp.) ([Yochum et al., 2014]).
Fig. 9. […] Cells were analyzed for BH2 and BH4 as described in the Materials and Methods. […]

T1 sequence (Q64105 whole entry): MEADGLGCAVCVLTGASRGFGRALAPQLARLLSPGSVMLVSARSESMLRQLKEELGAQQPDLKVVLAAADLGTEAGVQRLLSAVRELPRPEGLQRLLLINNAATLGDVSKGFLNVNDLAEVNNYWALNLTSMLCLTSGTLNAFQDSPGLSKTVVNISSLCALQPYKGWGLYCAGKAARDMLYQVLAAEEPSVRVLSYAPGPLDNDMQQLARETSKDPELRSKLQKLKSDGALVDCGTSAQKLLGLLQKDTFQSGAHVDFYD

## CC[PH](CC)(CC)[Au][S][C@@H]1O[C@H](COC(C)=O)[C@@H](OC(C)=O)[C@H](OC(C)=O)[C@H]1OC(C)=O [auranofin, 2,3,4,6-tetra-O-acetyl-1-thio-β-D-glucopyranosato-S-triethyl phosphine gold]
SPR
  IC50: 21.3 ± 1.58 µM
[1]
  production of monoamines (serotonin, dopamine) and their metabolites (5HIAA, DOPAC, HVA): concentration-dependent inhibition; also recorded: significantly reduced

Reference: paper PMC13249053, “Mechanism of auranofin toxicity: Inhibition of tetrahydrobiopterin metabolism” (Toxicology and applied pharmacology, 2025)
